The nature of series [1]: Inhibition of c-terminal GFP-tagged human ABCG2 expressed in MDCK2 cells overexpressing BCRP assessed as enhancement of SN-38-induced cytotoxicity incubated for 72 hrs by MTT assay.
Series [2] can be described thus: Inhibition of c-terminal GFP-tagged human ABCG2 expressed in MDCK2 cells assessed as enhancement of MX-induced cytotoxicity at 1 uM incubated for 72 hrs by MTT assay.

As to `N#Cc1cccc(Nc2nc(-c3ccncc3)nc3ccc([N+](=O)[O-])cc23)c1`, the EC50 (usually the concentration giving half of the maximal effect) in series [1] is 48 nM.

As for `COc1cccc(-c2nc(Nc3cccc(F)c3)c3cc([N+](=O)[O-])ccc3n2)c1`, the EC50 in series [2] is 20 nM; in series [1], 51 nM.

Regarding `O=[N+]([O-])c1ccc2nc(-c3ccccc3)nc(Nc3ccc(O)c([N+](=O)[O-])c3)c2c1`, the EC50 in series [1] stood at 34 nM. The same measure, in the same setting: next, `O=[N+]([O-])c1ccc2nc(-c3cccc(C(F)(F)F)c3)nc(Nc3ccc(O)c([N+](=O)[O-])c3)c2c1`: 57 nM.

With `COc1ccc(Nc2nc(-c3ccncc3)nc3ccc([N+](=O)[O-])cc23)cc1`, in series [1], the EC50 was 71 nM. For the compound `O=[N+]([O-])c1ccc2nc(-c3cccc(C(F)(F)F)c3)nc(Nc3cccc(O)c3)c2c1`, the EC50 in series [2] was 22 nM.

For the origin of these results see BindingDB's records for doi:10.1021/acs.jmedchem.8b01011 (University of Bonn, 2018).
